Source: patent US8541407B2 (ArQule, Inc., priority 2010, dated 2013)

Target: AKT1 (Homo sapiens (Human), UniProt P31749)
Assay: Inactive Akt Alpha Screen Assay
Settings: non *labeled: Akt Alpha Screen assay; read-out: AKT1 biochemical assay, IC50
Method in brief: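 AKT1 activated in situ by PDK1, MAPKAPK2, lipid vesicles and ATP, then phosphorylating biotinylated crosstide for 30 min at room temperature. Stopped with 10 mM EDTA; phosphopeptide detected by AlphaScreen using phospho-AKT substrate antibody (1:350), Protein A acceptor and streptavidin donor beads, 90 min dark, ex 640/em 570 nm.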

AKT1, sequence (P31749 whole entry): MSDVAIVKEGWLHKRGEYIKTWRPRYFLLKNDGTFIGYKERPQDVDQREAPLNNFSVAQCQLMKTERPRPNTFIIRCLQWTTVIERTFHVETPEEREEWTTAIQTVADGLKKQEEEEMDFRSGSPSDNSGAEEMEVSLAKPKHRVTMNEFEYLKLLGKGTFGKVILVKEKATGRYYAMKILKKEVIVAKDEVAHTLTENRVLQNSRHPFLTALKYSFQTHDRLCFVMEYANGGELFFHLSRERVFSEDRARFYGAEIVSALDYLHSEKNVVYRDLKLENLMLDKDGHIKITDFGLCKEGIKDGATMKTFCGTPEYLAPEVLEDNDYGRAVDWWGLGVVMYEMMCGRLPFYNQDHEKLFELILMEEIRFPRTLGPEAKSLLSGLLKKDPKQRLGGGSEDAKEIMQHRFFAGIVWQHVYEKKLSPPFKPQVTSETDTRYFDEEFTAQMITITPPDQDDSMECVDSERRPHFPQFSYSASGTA

SMILES	IC50
CN1CCC(N(C)Cc2ccc(-c3nnc4n3-c3cccnc3Nc3ccccc3-4)cc2)CC1 [Example 88, N-(4-(9H-benzo[f]pyrido[2,3-b][1,2,4]triazolo[4,3-d][1,4]diazepin-3-yl)benzyl)-N,1-dimethylpiperidin-4-amine]	5500 nM
N#Cc1ccc(C(=O)Nc2ccc(-c3nnc4n3-c3cccnc3Nc3ccccc3-4)cc2)cc1 [Example 38, N-(4-(9H-benzo[f]pyrido[2,3-b][1,2,4]triazolo[4,3-d][1,4]diazepin-3-yl)phenyl)-4-cyanobenzamide]	140 nM
CCOC(=O)N1CCC(NCc2ccc(-c3nnc4n3-c3cccnc3Nc3ccccc3-4)cc2)CC1 [Example 89, ethyl 4-((4-(9H-benzo[f]pyrido[2,3-b][1,2,4]triazolo[4,3-d][1,4]diazepin-3-yl)benzyl)amino)piperidine-1-carboxylate]	2300 nM
Cc1ccccc1CNC(=O)NC1CCN(Cc2ccc(-c3nnc4n3-c3cccnc3Nc3ccccc3-4)cc2)CC1 [Example 181, 1-(1-(4-(9H-benzo[f]pyrido[2,3-b][1,2,4]triazolo[4,3-d][1,4]diazepin-3-yl)benzyl)piperidin-4-yl)-3-(2-methylbenzyl)urea]	1200 nM
OCc1ccc(-c2nnc3n2-c2cccnc2Nc2ccc(Br)cc2-3)cc1 [Example 225, (4-(12-bromo-9H-benzo[f]pyrido[2,3-b][1,2,4]triazolo[4,3-d][1,4]diazepin-3-yl)phenyl)methanol]	5200 nM
O=S(=O)(Nc1ccc(-c2nnc3n2-c2cccnc2Nc2ccccc2-3)cc1)c1ccccc1 [Example 106, N-(4-(9H-benzo[f]pyrido[2,3-b][1,2,4]triazolo[4,3-d][1,4]diazepin-3-yl)phenyl)benzenesulfonamide]	6600 nM
Cc1cccc(C(=O)N2CCN(Cc3ccc(-c4nnc5n4-c4cccnc4Nc4ccccc4-5)cc3)CC2)c1 [Example 136, (4-(4-(9H-benzo[f]pyrido[2,3-b][1,2,4]triazolo[4,3-d][1,4]diazepin-3-yl)benzyl)piperazin-1-yl)(m-tolyl)methanone]	1300 nM
O=S(=O)(Cc1ccccc1)NC1CCN(Cc2ccc(-c3nnc4n3-c3cccnc3Nc3ccccc3-4)cc2)CC1 [Example 152, N-(1-(4-(9H-benzo[f]pyrido[2,3-b][1,2,4]triazolo[4,3-d][1,4]diazepin-3-yl)benzyl)piperidin-4-yl)-1-phenylmethanesulfonamide]	1800 nM
CCCNCc1ccc(-c2nnc3n2-c2cccnc2Nc2ccccc2-3)cc1 [Example 87, N-(4-(9H-benzo[f]pyrido[2,3-b][1,2,4]triazolo[4,3-d][1,4]diazepin-3-yl)benzyl)propan-1-amine]	5800 nM
O=S(=O)(NCc1ccc(-c2nnc3n2-c2cccnc2Nc2ccccc2-3)cc1)c1ccccc1F [Example 112, N-(4-(9H-benzo[f]pyrido[2,3-b][1,2,4]triazolo[4,3-d][1,4]diazepin-3-yl)benzyl)-2-fluorobenzenesulfonamide]	170 nM
O=C(Nc1ccc(-c2nnc3n2-c2cccnc2Nc2ccccc2-3)cc1)c1cc2ccccc2s1 [Example 42, N-(4-(9H-benzo[f]pyrido[2,3-b][1,2,4]triazolo[4,3-d][1,4]diazepin-3-yl)phenyl)benzo[b]thiophene-2-carboxamide]	360 nM
O=C(Nc1ccc(-c2nnc3n2-c2cccnc2Nc2ccccc2-3)cc1)c1ccc(F)c(F)c1 [Example 37, N-(4-(9H-benzo[f]pyrido[2,3-b][1,2,4]triazolo[4,3-d][1,4]diazepin-3-yl)phenyl)-3,4-difluorobenzamide]	150 nM
NC1(c2ccc(-c3nnc4n3-c3cccnc3Nc3ccccc3-4)cc2)CCCCC1 [Example 217, 1-(4-(9H-benzo[f]pyrido[2,3-b][1,2,4]triazolo[4,3-d][1,4]diazepin-3-yl)phenyl)cyclohexanamine]	500 nM
O=C(Nc1ccccc1F)NC1CCN(Cc2ccc(-c3nnc4n3-c3cccnc3Nc3ccccc3-4)cc2)CC1 [Example 167, 1-(1-(4-(9H-benzo[f]pyrido[2,3-b][1,2,4]triazolo[4,3-d][1,4]diazepin-3-yl)benzyl)piperidin-4-yl)-3-(2-fluorophenyl)urea]	440 nM
O=C(NC1(c2ccc(-c3nnc4n3-c3cccnc3Nc3ccccc3-4)cc2)CCC1)c1ccc(F)cc1 [Example 200, N-(1-(4-(9H-benzo[f]pyrido[2,3-b][1,2,4]triazolo[4,3-d][1,4]diazepin-3-yl)phenyl)cyclobutyl)-4-fluorobenzamide]	610 nM
O=C(Nc1ccc(-c2nnc3n2-c2cccnc2Nc2ccccc2-3)cc1)c1ccco1 [Example 50, N-(4-(9H-benzo[f]pyrido[2,3-b][1,2,4]triazolo[4,3-d][1,4]diazepin-3-yl)phenyl)furan-2-carboxamide]	130 nM
c1ccc2c(c1)Nc1ncccc1-n1c(-c3ccc(CN4CCN(Cc5ccncc5)CC4)cc3)nnc1-2 [Example 74, 3-(4-((4-(pyridin-4-ylmethyl)piperazin-1-yl)methyl)phenyl)-9H-benzo[f]pyrido[2,3-b][1,2,4]triazolo[4,3-d][1,4]diazepine]	5200 nM
O=C(Cc1cccc2ccccc12)Nc1ccc(-c2nnc3n2-c2cccnc2Nc2ccccc2-3)cc1 [Example 35, N-(4-(9H-benzo[f]pyrido[2,3-b][1,2,4]triazolo[4,3-d][1,4]diazepin-3-yl)phenyl)-2-(naphthalen-1-yl)acetamide]	950 nM
CN(CCc1ccccc1)Cc1ccc(-c2nnc3n2-c2cccnc2Nc2ccccc2-3)cc1 [Example 79, N-(4-(9H-benzo[f]pyrido[2,3-b][1,2,4]triazolo[4,3-d][1,4]diazepin-3-yl)benzyl)-N-methyl-2-phenylethanamine]	780 nM
CN(C)c1ccc(C(=O)Nc2ccc(-c3nnc4n3-c3cccnc3Nc3ccccc3-4)cc2)cc1 [Example 45, N-(4-(9H-benzo[f]pyrido[2,3-b][1,2,4]triazolo[4,3-d][1,4]diazepin-3-yl)phenyl)-4-(dimethylamino)benzamide]	1900 nM
CC(C)CC(=O)Nc1ccc(-c2nnc3n2-c2cccnc2Nc2ccccc2-3)cc1 [Example 33, N-(4-(9H-benzo[f]pyrido[2,3-b][1,2,4]triazolo[4,3-d][1,4]diazepin-3-yl)phenyl)-3-methylbutanamide]	700 nM
c1ccc(OC2CCCN(Cc3ccc(-c4nnc5n4-c4cccnc4Nc4ccccc4-5)cc3)C2)cc1 (stereo not shown) [Example 189, 3-(4-((3-phenoxypiperidin-1-yl)methyl)phenyl)-9H-benzo[f]pyrido[2,3-b][1,2,4]triazolo[4,3-d][1,4]diazepine]	920 nM
Cc1cc(C(=O)Nc2ccc(-c3nnc4n3-c3cccnc3Nc3ccccc3-4)cc2)no1 [Example 48, N-(4-(9H-benzo[f]pyrido[2,3-b][1,2,4]triazolo[4,3-d][1,4]diazepin-3-yl)phenyl)-5-methylisoxazole-3-carboxamide]	120 nM
O=C(CCc1ccccc1)N1CCN(Cc2ccc(-c3nnc4n3-c3cccnc3Nc3ccccc3-4)cc2)CC1 [Example 135, 1-(4-(4-(9H-benzo[f]pyrido[2,3-b][1,2,4]triazolo[4,3-d][1,4]diazepin-3-yl)benzyl)piperazin-1-yl)-3-phenylpropan-1-one]	3400 nM
O=C(c1ccc2c(c1)OCO2)N1CCN(Cc2ccc(-c3nnc4n3-c3cccnc3Nc3ccccc3-4)cc2)CC1 [Example 158, (4-(4-(9H-benzo[f]pyrido[2,3-b][1,2,4]triazolo[4,3-d][1,4]diazepin-3-yl)benzyl)piperazin-1-yl)(benzo[d][1,3]dioxol-5-yl)methanone]	6900 nM
